# Results from PubChem BioAssay AID330 (DTP/NCI, 2004).
# Several values for one entry are separate records, joined by “and”; a condition that tells them apart may be missing. Identical values can stand only once. Inconclusive results and toxic doses are left out.
# Tested on: P388 leukemia ip, CD2F1 mice, survival T/C
# Experiment: NCI In Vivo Anticancer Drug Screen. Data for tumor model P388 Leukemia (intraperitoneal) in CD2F1 (CDF1) mice
# Settings: endpoint: median survival time, higher = longer survival
# Outline: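 Mice carrying the transplanted tumor received test compound or vehicle. Survival was recorded in each group, and the value is the treated-group measurement divided by that of the vehicle-treated control group.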
# [1] = dose: 50.0 mg/kg/injection, schedule: Q01DX009 (ip), vehicle: Klucel (hydroxypropylcellulose) (HPC)
# [2] = dose: 100.0 mg/kg/injection, schedule: Q01DX009 (ip), vehicle: Klucel (hydroxypropylcellulose) (HPC)
# [3] = dose: 200.0 mg/kg/injection, schedule: Q01DX009 (ip), vehicle: Klucel (hydroxypropylcellulose) (HPC)
# [4] = dose: 50.0 mg/kg/injection, schedule: Q01DX005 (ip), vehicle: Klucel (hydroxypropylcellulose) (HPC)
# [5] = dose: 100.0 mg/kg/injection, schedule: Q01DX005 (ip), vehicle: Klucel (hydroxypropylcellulose) (HPC)
# [6] = dose: 200.0 mg/kg/injection, schedule: Q01DX005 (ip), vehicle: Klucel (hydroxypropylcellulose) (HPC)
# [7] = dose: 50.0 mg/kg/injection, schedule: Q01DX005 (ip), vehicle: saline with Tween-80
# [8] = dose: 100.0 mg/kg/injection, schedule: Q01DX005 (ip), vehicle: saline with Tween-80
# [9] = dose: 50.0 mg/kg/injection, schedule: Q01DX009 (ip), vehicle: saline with Tween-80
# [10] = dose: 100.0 mg/kg/injection, schedule: Q01DX009 (ip), vehicle: saline with Tween-80
# [11] = dose: 100.0 mg/kg/injection, schedule: Q01DX001 (ip), vehicle: Klucel (hydroxypropylcellulose) (HPC)
# [12] = dose: 200.0 mg/kg/injection, schedule: Q01DX001 (ip), vehicle: Klucel (hydroxypropylcellulose) (HPC)
# [13] = dose: 400.0 mg/kg/injection, schedule: Q01DX001 (ip), vehicle: Klucel (hydroxypropylcellulose) (HPC)
# [14] = dose: 50.0 mg/kg/injection, schedule: Q01DX009 (ip), vehicle: saline
# [15] = dose: 100.0 mg/kg/injection, schedule: Q01DX009 (ip), vehicle: saline
# [16] = dose: 200.0 mg/kg/injection, schedule: Q01DX009 (ip), vehicle: saline
# [17] = dose: 50.0 mg/kg/injection, schedule: Q01DX001 (ip), vehicle: Klucel (hydroxypropylcellulose) (HPC)
smiles,measurement,setting,value
CN(C)c1ccc(N=Nc2ccccc2)cc1,T/C,"dose: 31.25 mg/kg/injection, schedule: Q01DX009 (ip), vehicle: saline with Tween-80",100 % of control
same,T/C,"dose: 62.5 mg/kg/injection, schedule: Q01DX009 (ip), vehicle: saline with Tween-80",109 % of control
NC(Cc1c[nH]c2ccccc12)C(=O)O (stereo not given),T/C,[1],99 % of control
same,T/C,[2],107 % of control
same,T/C,[3],104 % of control
C=CSS/C(=C/N(C=O)Cc1cnc(C)nc1N)CCO,T/C,"dose: 25.0 mg/kg/injection, schedule: Q01DX005 (ip), vehicle: Klucel (hydroxypropylcellulose) (HPC)",108 % of control
same,T/C,[4],108 % of control
same,T/C,[5],102 % of control
same,T/C,[6],117 % of control
O=NN(C(=O)NC1CCCC1)C1CCCC1,T/C,"dose: 25.0 mg/kg/injection, schedule: Q01DX001 (ip), vehicle: distilled water + Tween-80",106 % of control
same,T/C,"dose: 50.0 mg/kg/injection, schedule: Q01DX001 (ip), vehicle: distilled water + Tween-80",105 % of control
same,T/C,"dose: 100.0 mg/kg/injection, schedule: Q01DX001 (ip), vehicle: distilled water + Tween-80",108 % of control
same,T/C,"dose: 200.0 mg/kg/injection, schedule: Q01DX001 (ip), vehicle: distilled water + Tween-80",110 % of control
same,T/C,"dose: 400.0 mg/kg/injection, schedule: Q01DX001 (ip), vehicle: distilled water + Tween-80",110 % of control
Cc1ccc2c(c1)C(=O)c1c(ccc3ccccc13)C2=O,T/C,[7],95 % of control
same,T/C,[8],100 % of control
same,T/C,"dose: 200.0 mg/kg/injection, schedule: Q01DX005 (ip), vehicle: saline with Tween-80",104 % of control
CCC[As](CCC)SCC1OC(OC(C)=O)C(OC(C)=O)C(OC(C)=O)C1OC(C)=O (stereo not given),T/C,[9],117 % of control
same,T/C,[10],110 % of control
C/C=C/C[P+](c1ccccc1)(c1ccccc1)c1cccc2ccccc12,T/C,"dose: 6.25 mg/kg/injection, schedule: Q04DX002 (ip), vehicle: saline with Tween-80",121 % of control
same,T/C,"dose: 12.5 mg/kg/injection, schedule: Q04DX002 (ip), vehicle: saline with Tween-80",99 % of control
same,T/C,"dose: 25.0 mg/kg/injection, schedule: Q04DX002 (ip), vehicle: saline with Tween-80",108 % of control
CCCc1[nH]nc(-c2n[nH]c(CCC)c2CC)c1CC,T/C,"dose: 60.0 mg/kg/injection, schedule: Q01DX005 (ip), vehicle: saline with Tween-80",101 % of control
same,T/C,"dose: 120.0 mg/kg/injection, schedule: Q01DX005 (ip), vehicle: saline with Tween-80",93 % of control
same,T/C,"dose: 240.0 mg/kg/injection, schedule: Q01DX005 (ip), vehicle: saline with Tween-80",110 % of control
Cc1csc2ccc(Cl)cc12,T/C,[11],95 % of control
same,T/C,[12],107 % of control
same,T/C,[13],107 % of control
CC(C)(C)c1ccc2c(O)c(C(C)(C)C)cc(-c3ccccc3)c2c1,T/C,[14],107 % of control
same,T/C,[15],110 % of control
same,T/C,[16],106 % of control
COC(CCC(C)C1OC23CC(OC(=O)CC(C(C)O)OC(=O)CC(O)(O2)C(C)CC3(C)C)C1C)c1cccc(O)c1 (stereo not given),T/C,"dose: 3.12 micrograms/kg/injection, schedule: Q01DX009 (ip), vehicle: saline + Tween-80 + alcohol",101 % of control
same,T/C,"dose: 6.25 micrograms/kg/injection, schedule: Q01DX009 (ip), vehicle: saline + Tween-80 + alcohol",107 % of control and 109 % of control and 86 % of control
same,T/C,"dose: 12.5 micrograms/kg/injection, schedule: Q01DX009 (ip), vehicle: saline + Tween-80 + alcohol",108 % of control
same,T/C,"dose: 25.0 micrograms/kg/injection, schedule: Q01DX009 (ip), vehicle: saline + Tween-80 + alcohol",111 % of control and 117 % of control
same,T/C,"dose: 50.0 micrograms/kg/injection, schedule: Q01DX009 (ip), vehicle: saline + Tween-80 + alcohol",115 % of control and 117 % of control
C/C=C/C1CC2CC(CC(O)CC)CN2O1 (stereo not given),T/C,"dose: 25.0 mg/kg/injection, schedule: Q01DX005 (ip), vehicle: saline with Tween-80",108 % of control
same,T/C,[7],100 % of control
same,T/C,[8],110 % of control
COc1ccc(SS(=O)c2ccc(C)cc2)cc1 (stereo not given),T/C,"dose: 100.0 mg/kg/injection, schedule: Q01DX001 (ip), vehicle: other",105 % of control
same,T/C,"dose: 200.0 mg/kg/injection, schedule: Q01DX001 (ip), vehicle: other",106 % of control
same,T/C,"dose: 400.0 mg/kg/injection, schedule: Q01DX001 (ip), vehicle: other",111 % of control
C1CNCOC1,T/C,"dose: 50.0 mg/kg/injection, schedule: Q04DX003 (ip), vehicle: saline",120 % of control
same,T/C,"dose: 100.0 mg/kg/injection, schedule: Q04DX003 (ip), vehicle: saline",117 % of control
same,T/C,"dose: 200.0 mg/kg/injection, schedule: Q04DX003 (ip), vehicle: saline",123 % of control
CCOC(=O)C(Cc1ccc(O)c(C=O)c1)NC(C)=O (stereo not given),T/C,"dose: 60.0 mg/kg/injection, schedule: Q01DX005 (ip), vehicle: Klucel (hydroxypropylcellulose) (HPC)",96 % of control
same,T/C,"dose: 120.0 mg/kg/injection, schedule: Q01DX005 (ip), vehicle: Klucel (hydroxypropylcellulose) (HPC)",97 % of control
same,T/C,"dose: 240.0 mg/kg/injection, schedule: Q01DX005 (ip), vehicle: Klucel (hydroxypropylcellulose) (HPC)",98 % of control
CC(=O)OCC1OC([S-])C(OC(C)=O)C(OC(C)=O)C1OC(C)=O.CC[PH+](CC)CC.CC[PH+](CC)CC.[Au].[Au] (stereo not given),T/C,"dose: 5.0 mg/kg/injection, schedule: Q01DX009 (ip), vehicle: Klucel (hydroxypropylcellulose) (HPC)",121 % of control
same,T/C,"dose: 10.0 mg/kg/injection, schedule: Q01DX009 (ip), vehicle: Klucel (hydroxypropylcellulose) (HPC)",163 % of control
CCCCCCCCCCS(=O)(=O)OCCCCOS(=O)(=O)CCCCCCCCCC,T/C,[4],103 % of control
same,T/C,[5],103 % of control
same,T/C,[6],93 % of control
CNC(=O)OCc1c(COC(=O)NC)c(-c2ccc(S(C)(=O)=O)cc2)n(C)c1C,T/C,"dose: 12.5 mg/kg/injection, schedule: Q01DX009 (ip), vehicle: distilled water + Tween-80",111 % of control
same,T/C,"dose: 50.0 mg/kg/injection, schedule: Q01DX009 (ip), vehicle: distilled water + Tween-80",162 % of control
same,T/C,"dose: 100.0 mg/kg/injection, schedule: Q01DX009 (ip), vehicle: distilled water + Tween-80",161 % of control and 180 % of control
same,T/C,"dose: 200.0 mg/kg/injection, schedule: Q01DX009 (ip), vehicle: distilled water + Tween-80",198 % of control
NC(=O)c1ncn(C2OC(CO)C(O)C2O)c1N (stereo not given),T/C,[14],106 % of control and 109 % of control
same,T/C,[15],98 % of control and 95 % of control
same,T/C,[16],103 % of control and 108 % of control
same,T/C,"dose: 400.0 mg/kg/injection, schedule: Q01DX009 (ip), vehicle: saline",107 % of control and 87 % of control
CC(=O)Oc1ccccc1C(=O)OCC(=O)c1ccc2c(c1)Nc1ccccc1S2,T/C,"dose: 1.56 mg/kg/injection, schedule: Q01DX001 (ip), vehicle: Klucel (hydroxypropylcellulose) (HPC)",93 % of control
same,T/C,"dose: 3.13 mg/kg/injection, schedule: Q01DX001 (ip), vehicle: Klucel (hydroxypropylcellulose) (HPC)",95 % of control
same,T/C,"dose: 6.25 mg/kg/injection, schedule: Q01DX001 (ip), vehicle: Klucel (hydroxypropylcellulose) (HPC)",90 % of control
same,T/C,[17],87 % of control
same,T/C,[12],94 % of control
COc1ccc2c(NCCCCCCCCNc3c4ccccc4nc4cc(OC)ccc34)c3ccccc3nc2c1,T/C,"dose: 0.62 mg/kg/injection, schedule: Q01DX009 (ip), vehicle: other",176 % of control
same,T/C,"dose: 3.75 mg/kg/injection, schedule: Q01DX009 (ip), vehicle: other",157 % of control
same,T/C,"dose: 7.5 mg/kg/injection, schedule: Q01DX009 (ip), vehicle: other",100 % of control
Cc1cc(C)c(N(CCO)CCO)cc1C,T/C,[9],99 % of control
same,T/C,[10],108 % of control
same,T/C,"dose: 200.0 mg/kg/injection, schedule: Q01DX009 (ip), vehicle: saline with Tween-80",97 % of control
O=c1oc(-c2ccccc2)cc2ccccc12,T/C,[4],100 % of control and 105 % of control
same,T/C,[5],99 % of control and 109 % of control
same,T/C,[6],99 % of control and 98 % of control
same,T/C,"dose: 400.0 mg/kg/injection, schedule: Q01DX005 (ip), vehicle: Klucel (hydroxypropylcellulose) (HPC)",100 % of control and 93 % of control
NC(=O)C(=O)NNc1cccc(Cl)n1,T/C,[17],96 % of control
same,T/C,[11],98 % of control
same,T/C,[12],103 % of control
COc1cc(N=C=S)ccc1NC(=O)c1cc(Br)cc(Br)c1O,T/C,[11],106 % of control
same,T/C,[12],101 % of control
same,T/C,[13],106 % of control
CN1C(=O)C(=O)N(Cc2ccco2)C1=O,T/C,[1],97 % of control
same,T/C,[2],100 % of control
same,T/C,[3],101 % of control
